Reference: PubChem BioAssay AID256 (DTP/NCI, 2004)
Where “and” joins values, the source holds several entries; their conditions need not be identical. Identical values can stand only once. Toxic doses and inconclusive results are not listed. Rule for the calls: active = survival T/C of 150% or more; inactive = T/C below 125% in these data.

Test system: CD2F1 mice, L1210 leukemia ip, survival T/C
Experiment: NCI In Vivo Anticancer Drug Screen. Data for tumor model L1210 Leukemia (intraperitoneal) in CD2F1 (CDF1) mice
Details: higher = longer survival
In short: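 Vehicle-treated tumor-bearing mice served as controls (C) for compound-treated mice (T). Reported figure is T divided by C.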

[1] = endpoint: mean survival time, dose: 100.0 mg/kg/injection, schedule: Q01DX009 (ip), vehicle: saline with Tween-80
[2] = endpoint: mean survival time, dose: 100.0 mg/kg/injection, schedule: Q04DX003 (ip), vehicle: saline with Tween-80
[3] = endpoint: mean survival time, dose: 200.0 mg/kg/injection, schedule: Q01DX009 (ip), vehicle: saline with Tween-80
[4] = endpoint: mean survival time, dose: 200.0 mg/kg/injection, schedule: Q04DX003 (ip), vehicle: saline with Tween-80
[5] = endpoint: mean survival time, dose: 400.0 mg/kg/injection, schedule: Q01DX009 (ip), vehicle: saline with Tween-80
[6] = endpoint: mean survival time, dose: 400.0 mg/kg/injection, schedule: Q04DX003 (ip), vehicle: saline with Tween-80
[7] = endpoint: mean survival time, dose: 50.0 mg/kg/injection, schedule: Q01DX009 (ip), vehicle: Klucel (hydroxypropylcellulose) (HPC)
[8] = endpoint: mean survival time, dose: 100.0 mg/kg/injection, schedule: Q01DX009 (ip), vehicle: Klucel (hydroxypropylcellulose) (HPC)
[9] = endpoint: mean survival time, dose: 200.0 mg/kg/injection, schedule: Q01DX009 (ip), vehicle: Klucel (hydroxypropylcellulose) (HPC)
[10] = endpoint: mean survival time, dose: 25.0 mg/kg/injection, schedule: Q01DX005 (ip), vehicle: distilled water + Tween-80
[11] = endpoint: mean survival time, dose: 50.0 mg/kg/injection, schedule: Q01DX005 (ip), vehicle: distilled water + Tween-80
[12] = endpoint: mean survival time, dose: 100.0 mg/kg/injection, schedule: Q01DX005 (ip), vehicle: distilled water + Tween-80
[13] = endpoint: mean survival time, dose: 200.0 mg/kg/injection, schedule: Q01DX005 (ip), vehicle: distilled water + Tween-80
[14] = endpoint: mean survival time, dose: 100.0 mg/kg/injection, schedule: Q01DX001 (ip), vehicle: saline with Tween-80
[15] = endpoint: mean survival time, dose: 25.0 mg/kg/injection, schedule: Q01DX009 (ip), vehicle: other
[16] = endpoint: mean survival time, dose: 50.0 mg/kg/injection, schedule: Q01DX009 (ip), vehicle: saline with Tween-80
[17] = endpoint: mean survival time, dose: 100.0 mg/kg/injection, schedule: Q04DX002 (ip), vehicle: saline with Tween-80
[18] = endpoint: mean survival time, dose: 200.0 mg/kg/injection, schedule: Q04DX002 (ip), vehicle: saline with Tween-80
[19] = endpoint: mean survival time, dose: 200.0 mg/kg/injection, schedule: Q04DX003 (ip), vehicle: other

Measured: T/C

CN(C)/N=C/c1ccccn1
inactive: endpoint: mean survival time, dose: 25.0 mg/kg/injection, schedule: Q04DX003 (ip), vehicle: saline 98 % of control | endpoint: mean survival time, dose: 50.0 mg/kg/injection, schedule: Q04DX003 (ip), vehicle: saline 95 % of control | endpoint: mean survival time, dose: 100.0 mg/kg/injection, schedule: Q04DX003 (ip), vehicle: saline 101 % of control | endpoint: mean survival time, dose: 200.0 mg/kg/injection, schedule: Q04DX003 (ip), vehicle: saline 120 % of control

CCC(C)C#N (stereo not drawn)
inactive: endpoint: mean survival time, dose: 5.0 mg/kg/injection, schedule: Q01DX009 (ip), vehicle: saline with Tween-80 98 % of control | endpoint: mean survival time, dose: 5.0 mg/kg/injection, schedule: Q04DX003 (ip), vehicle: saline 97 % of control | endpoint: mean survival time, dose: 10.0 mg/kg/injection, schedule: Q01DX009 (ip), vehicle: saline with Tween-80 100 % of control | endpoint: mean survival time, dose: 10.0 mg/kg/injection, schedule: Q04DX003 (ip), vehicle: saline 103 % of control | endpoint: mean survival time, dose: 20.0 mg/kg/injection, schedule: Q01DX009 (ip), vehicle: saline with Tween-80 94 % of control | endpoint: mean survival time, dose: 20.0 mg/kg/injection, schedule: Q04DX003 (ip), vehicle: saline 103 % of control

CNC(=O)n1c(N)nc(-c2ccccc2)c1-c1ccccc1
inactive: endpoint: median survival time, dose: 6.25 mg/kg/injection, schedule: Q01DX009 (ip), vehicle: saline with Tween-80 101 % of control | endpoint: median survival time, dose: 12.5 mg/kg/injection, schedule: Q01DX009 (ip), vehicle: saline with Tween-80 103 % of control | endpoint: median survival time, dose: 25.0 mg/kg/injection, schedule: Q01DX009 (ip), vehicle: saline with Tween-80 114 % of control | endpoint: median survival time, dose: 50.0 mg/kg/injection, schedule: Q01DX009 (ip), vehicle: saline with Tween-80 119 % of control | endpoint: median survival time, dose: 100.0 mg/kg/injection, schedule: Q01DX009 (ip), vehicle: saline with Tween-80 98 % of control

COC(=O)CCCCCCCCO
inactive: [1] 109 % of control | [2] 97 % of control | [3] 101 % of control | [4] 95 % of control | [5] 104 % of control | [6] 90 % of control

CC12CCC(C/C1=C\C#N)C(C)(C)O2 (stereo not drawn)
inactive: [7] 97 % of control | [8] 94 % of control | [9] 105 % of control

CSc1nccc2c1nnn2C1OC(CO)C(O)C1O (stereo not drawn)
inactive: endpoint: mean survival time, dose: 12.5 mg/kg/injection, schedule: Q01DX005 (ip), vehicle: other 101 % of control | endpoint: mean survival time, dose: 25.0 mg/kg/injection, schedule: Q01DX005 (ip), vehicle: other 101 % of control | endpoint: mean survival time, dose: 50.0 mg/kg/injection, schedule: Q01DX005 (ip), vehicle: other 97 % of control | endpoint: mean survival time, dose: 100.0 mg/kg/injection, schedule: Q01DX005 (ip), vehicle: other 101 % of control | endpoint: mean survival time, dose: 200.0 mg/kg/injection, schedule: Q01DX005 (ip), vehicle: other 100 % of control

CC(NC=O)c1c[nH]c(=O)[nH]c1=O (stereo not drawn)
inactive: [1] 100 % of control | [3] 97 % of control | [5] 97 % of control

CCOC(=O)CCCSc1n[nH]c(=O)[nH]c1=O
inactive: endpoint: mean survival time, dose: 12.5 mg/kg/injection, schedule: Q01DX005 (ip), vehicle: distilled water + Tween-80 100 % of control | [10] 102 % of control | [11] 96 % of control | [12] 91 % of control | [13] 92 % of control

CCN(CC)CCNCCCNCCN(CC)CC
inactive: endpoint: mean survival time, dose: 100.0 mg/kg/injection, schedule: Q01DX009 (ip), vehicle: saline 92 % of control | [2] 98 % of control | endpoint: mean survival time, dose: 200.0 mg/kg/injection, schedule: Q01DX009 (ip), vehicle: saline 92 % of control | [4] 95 % of control | endpoint: mean survival time, dose: 400.0 mg/kg/injection, schedule: Q01DX009 (ip), vehicle: saline 87 % of control | [6] 95 % of control

CC(=O)OC1CCC2(C)C(=CC=C3C2CCC2(C)C3CCC2C(C)/C=C/C(C)C(C)C)C1 (stereo not drawn)
inactive: [7] 89 % of control | [8] 101 % of control | [9] 93 % of control

COc1cc2c(cc1OC)C(CCN)NCC2 (stereo not drawn)
inactive: [14] 97 % of control | endpoint: mean survival time, dose: 200.0 mg/kg/injection, schedule: Q01DX001 (ip), vehicle: saline with Tween-80 100 % of control | endpoint: mean survival time, dose: 400.0 mg/kg/injection, schedule: Q01DX001 (ip), vehicle: saline with Tween-80 94 % of control

CC1CC1Cc1ccccc1 (stereo not drawn)
inactive: [14] 86 % of control

Cc1cc(CBr)c(O)c(CBr)c1
inactive: [15] 101 % of control | endpoint: mean survival time, dose: 50.0 mg/kg/injection, schedule: Q01DX009 (ip), vehicle: other 93 % of control | endpoint: mean survival time, dose: 100.0 mg/kg/injection, schedule: Q01DX009 (ip), vehicle: other 104 % of control

O=[N+]([O-])c1cc(S(=O)(=O)F)ccc1Cl
inactive: endpoint: mean survival time, dose: 12.5 mg/kg/injection, schedule: Q01DX009 (ip), vehicle: saline with Tween-80 100 % of control | endpoint: mean survival time, dose: 25.0 mg/kg/injection, schedule: Q01DX009 (ip), vehicle: saline with Tween-80 94 % of control | [16] 97 % of control and 103 % of control

COc1ccc(COC(=O)Nc2ccc(Cl)cc2)cc1OC
inactive: [17] 96 % of control | [18] 100 % of control | endpoint: mean survival time, dose: 400.0 mg/kg/injection, schedule: Q04DX002 (ip), vehicle: saline with Tween-80 112 % of control

CC(=O)N(C)N=Nc1ccc(C)cc1
inactive: endpoint: mean survival time, dose: 88.0 mg/kg/injection, schedule: Q04DX003 (ip), vehicle: other 114 % of control | [19] 121 % of control

CC(C)=NO
inactive: [2] 109 % of control | [4] 90 % of control

COc1cc(OC)c(NC(=O)Nc2ccccc2C(N)=O)cc1Cl
inactive: [16] 111 % of control | [1] 96 % of control | [3] 100 % of control

O=C(OC1(c2ccccc2)C2C=CC1CC2)c1ccc([N+](=O)[O-])cc1 (stereo not drawn)
inactive: endpoint: mean survival time, dose: 50.0 mg/kg/injection, schedule: Q04DX002 (ip), vehicle: saline with Tween-80 102 % of control | [17] 98 % of control | [18] 95 % of control

Cc1ccc(S(=O)(=O)Oc2cccc(C)c2)cc1
inactive: [1] 96 % of control | [2] 100 % of control | [3] 96 % of control | [4] 99 % of control | [5] 91 % of control | [6] 94 % of control

CCCCCCCCCCCCSC1=CC(=O)C(OC)=C(OC)C1=O
inactive: endpoint: mean survival time, dose: 0.78 mg/kg/injection, schedule: Q01DX009 (ip), vehicle: other 95 % of control | endpoint: mean survival time, dose: 1.56 mg/kg/injection, schedule: Q01DX009 (ip), vehicle: other 95 % of control | endpoint: mean survival time, dose: 3.13 mg/kg/injection, schedule: Q01DX009 (ip), vehicle: other 97 % of control | endpoint: mean survival time, dose: 6.25 mg/kg/injection, schedule: Q01DX009 (ip), vehicle: other 97 % of control | endpoint: mean survival time, dose: 12.5 mg/kg/injection, schedule: Q01DX009 (ip), vehicle: other 95 % of control | [15] 94 % of control

CSc1nc(N)c2c3c(N)ncnc3n(C3OC(CO)C(O)C3O)c2n1 (stereo not drawn)
inactive: [10] 97 % of control | [11] 91 % of control | [12] 91 % of control | [13] 97 % of control | endpoint: mean survival time, dose: 400.0 mg/kg/injection, schedule: Q01DX005 (ip), vehicle: distilled water + Tween-80 101 % of control

CCCCCCP(C)(=O)CCCCCC
inactive: endpoint: mean survival time, dose: 25.0 mg/kg/injection, schedule: Q01DX001 (ip), vehicle: saline with Tween-80 96 % of control | endpoint: mean survival time, dose: 50.0 mg/kg/injection, schedule: Q01DX001 (ip), vehicle: saline with Tween-80 97 % of control | [14] 100 % of control

COc1ccc(C2=Nc3cccc4c3N(CCC4)C2c2ccc(OC)cc2)cc1 (stereo not drawn)
inactive: endpoint: mean survival time, dose: 100.0 mg/kg/injection, schedule: Q04DX003 (ip), vehicle: other 96 % of control | [19] 96 % of control | endpoint: mean survival time, dose: 400.0 mg/kg/injection, schedule: Q04DX003 (ip), vehicle: other 94 % of control

O=S(c1ccc(O)cc1)c1ccc(O)cc1
inactive: [16] 90 % of control | [1] 94 % of control

COc1cc2cc(c1Cl)N1CC(O)C(C)(O)C(=O)NC(C)C(=O)OC(CC1=O)C1(C)OC1C(C)C1CC(O)(NC(=O)O1)C(OC)/C=C\C=C(\C)C2OC (stereo not drawn)
inactive: endpoint: median survival time, dose: 2.0 micrograms/kg/injection, schedule: Q01DX009 (ip), vehicle: distilled water + alcohol 104 % of control | endpoint: median survival time, dose: 4.0 micrograms/kg/injection, schedule: Q01DX009 (ip), vehicle: distilled water + alcohol 104 % of control | endpoint: median survival time, dose: 8.0 micrograms/kg/injection, schedule: Q01DX009 (ip), vehicle: distilled water + alcohol 108 % of control | endpoint: median survival time, dose: 32.0 micrograms/kg/injection, schedule: Q01DX009 (ip), vehicle: distilled water + alcohol 104 % of control
